This note sets out measurements from US12478607B2, “Compounds useful for inhibiting BFL1 and their use in therapy” (CHILDREN'S HOSPITAL MEDICAL CENTER, priority 2019, dated 2025).

Data set [1] relates to T cells from Bax/Bak-deficient mice (Bax/Bak KO). The data set is described as follows: in vitro apoptosis assay, Bax/Bak-deficient murine T cells. Type of data set: cell-based, mouse. The source says:
(§1) We further tested the biological activity of the compounds using an in vitro apoptosis assay. Primary murine splenocyte cells were used as the model system. Single cell suspensions were generated from the spleens of either wild-type (WT) mice or mice having a genetic “knock-out” of the Bax and Bak genes, resulting in Bax/Bak deficient mice (Bax/Bak KO) which lack the core machinery of the intrinsic apoptotic pathway. Mice deficient in Bax/Bak are unable to undergo intrinsic apoptosis due to the lack of the pro-apoptotic Bax and Bak proteins in the pathway.
(§2) Purified cells were cultured on anti-CD3 coated (3 μg/mL, coated overnight, Biolegend, San Diego, CA) six-well plates in the presence of soluble anti-CD28 (2 μg/mL, Bio X Cell, West Lebanon, NH) and IL-2 (10 ng/mL, R&D Systems, Inc., Minneapolis, MN) in RPMI media (Life Technologies, Carlsbad, CA) for 24 hours at 37° C. Cells were then washed and cultured again in IL-2 (10 ng/mL) for 24 hours at 37° C. Cells were harvested and cultured for 24 hours on anti-CD3 coated 96-well plates at 500,000 cells per well with 2 μg/mL soluble anti-CD28, 10 ng/mL IL-2, 0.125 μg purified anti-mouse FasL (Biolegend, San Diego, CA), and varying concentrations of inhibitor compounds. Cells were then harvested and live and dead cells enumerated by trypan blue staining using the TC20 automated cell counter (Bio-Rad Laboratories, Des Plaines, IL).

Data set [2] has as its system wild-type activated primary murine T cells (splenocytes). The data set is described as follows: in vitro apoptosis assay, wild-type activated primary murine T cells. The settings on record: Mus musculus, T-cell, 24 hours, trypan blue live/dead count. It is filed as cell-based.
From the text: as §1, §2

Data set [3] has as its target T1, BCL2A1 (A1) (Mus musculus (Mouse), UniProt Q07440). In words: dose-response fluorescence polarization (FP) assay, displacement of FITC-labeled mNOXA peptide. Type of data set: binding, murine. The settings on record: 3 μM A1, 375 nM FITC-labeled mNOXA, overnight 20° C., triplicate. The procedure: (§3) These assays were carried out using fluorescently labeled NOXA peptide which binds within the BH3-binding groove. The FP assay measures the tumbling rate of the labeled NOXA peptide as a proxy for inhibition of BH3 binding using a competition-based approach. When NOXA is bound to BCL2A1, its rate of tumbling is low (and FP is high), whereas an effective inhibitor compound will displace NOXA, causing a fast rate of tumbling (and low FP value). The initial single high dose assay was performed with each compound using […] with BCL2A1 and FITC-NOXA, to observe the relative inhibition of the BCL2A1-NOXA interaction. Small molecules that deviated by three or more standard deviations from the control mean towards inhibition of binding were selected for further analysis. These compounds and any that were three standard deviations or more above the thermal shift controls in the DSF assays were tested in an FP dose-response experiment. […] The average thermal shift (Tm shift) in the DSF assay, along with the percentage of bound Noxa peptide from the single high dose FP assay are given below in Table 2 for each of these compounds. The first two compounds in Table 2 are reference compounds.
(§4) Compounds were additionally tested for specificity of binding by displacement of FITC-labeled mouse NOXA (mNoxa; Peptide 2.0) peptide via fluorescence polarization assay (FP). FP assays were performed in two steps: single-point high-concentration compounds and dose response of fluorescence polarization hits. A1 was added at 3 μM to 100 μM of each compound in 20 mM Tris pH 7, 500 mM NaCl, 0.005% Tween-20 buffer. After addition of 375 nM labeled mNOXA, 96-well plates were incubated overnight at 20° C. in the dark to achieve equilibrium before fluorescence polarization was measured with a Biotek Synergy H2. Autofluorescent compounds and fluorescent quenching compounds were corrected via ratiometric correction as described by Shapiro et al., 2009.
Dose response curves were measured by adding 3 μM A1 to a serial two-fold dilution series of each compound ranging from 400 μM to 781 nM in 20 mM Tris pH 7, 500 mM NaCl, 0.005% Tween-20 buffer. Some compounds were further tested to assess the accuracy of these two-fold dilutions with serial 1.33-fold dilutions. A1, compounds, buffer and lastly, 375 nM FITC-labeled mNOXA were added to each well and incubated in the dark at 20° C. overnight to achieve equilibrium, followed by measurement of polarization. All dose responses were performed in triplicate.

In another data set the target is BCL2A1 (purified A1) (Mus musculus (Mouse), UniProt Q07440). The data set is described as follows: differential scanning fluorimetry (DSF) thermal shift assay. It is filed as binding, murine. The settings on record: 100 μM compound, 4.4 μM A1, triplicate; for ΔTm at 100 µM: read-out: Average Tm Shift. The source says:
Thermal shift assays and fluorescence polarization competition assays were used to identify compounds that bind to BCL2A1/BFL1. Compounds were first tested for binding to BCL2A1 using differential scanning fluorimetry (DSF) thermal shift assays. DSF measures the midpoint temperature (Tm) for thermal denaturation of proteins; typically ligand binding stabilizes the protein fold, resulting in an increased Tm. During DSF experiments, all compounds that contributed to an increase in Tm that corresponded to at least three standard deviations from the mean were included in further assays.
100 μM of each compound was applied to purified A1 at 4.4 μM in triplicate. Sypro Orange dye was added at a final dilution of 1:1000 to protein- and compound-containing wells. An Applied Biosystems StepOnePlus was used to perform Differential Scanning Fluorimetry (DSF) by elevating the temperature from 20° C. to 99° C. and measuring fluorescence at every half degree C. Melting temperature was recorded as the maximum of the first derivative, indicating half of the protein population was unfolded.

The target in data set [4] is T1, BCL2A1 (A1). The data set is described as follows: single high-dose fluorescence polarization (FP) assay, BCL2A1-NOXA interaction. It is filed as binding, murine. The settings on record: 100 μM compound, 3 μM A1, 375 nM labeled mNOXA. The procedure: as §3, §4

T1 sequence (Q07440 whole entry): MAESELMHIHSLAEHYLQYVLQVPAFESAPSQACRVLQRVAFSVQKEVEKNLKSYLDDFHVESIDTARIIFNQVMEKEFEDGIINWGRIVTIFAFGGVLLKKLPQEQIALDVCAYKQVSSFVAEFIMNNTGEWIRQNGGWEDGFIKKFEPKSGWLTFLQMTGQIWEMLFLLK
Sequence of BCL2A1 (purified A1) (Q07440 whole entry): as above

Consider `CCN(CC)CC(O)CNc1ccc(C)c2sc3ccccc3c(=O)c12` (stereo not shown) [Compound 1.001], for which the “EC50 fold higher in Bax/Bak-deficient cells than in wild-type cells” value in data set [1] (Bax/Bak-deficient versus wild-type T cells) is listed as “about 10 fold”. Moreover, the half-maximal effective concentration (EC50) in data set [1] (Mus musculus, T-cell, Bax/Bak-deficient T cells, 24 hours, trypan blue live/dead count, read-out: EC50 of cell death) is 20 to 30 µM; in data set [2], around 3 µM. The IC50 on BCL2A1 (A1) [3] turned out to be 49.1 µM. For the same compound, at BCL2A1 (purified A1), the ΔTm at 100 µM amounted to 0.49 °C. The “% Bound Noxa (from high-dose FP)” value on BCL2A1 (A1) [4] was found to be 41.48%.

Consider `CCN(CC)CCNc1ccc(C)c2sc3ccccc3c(=O)c12` [Compound 1.002], for which the IC50 at BCL2A1 (A1) [3] was determined as 70.1 µM. Moreover, at BCL2A1 (purified A1), the ΔTm at 100 µM worked out at 38.8 °C. Besides, the “% Bound Noxa (from high-dose FP)” value on BCL2A1 (A1) [4] is 4.5%.

In the case of `CCN(CCNc1ccc(C)c2sc3ccccc3c(=O)c12)CC(C)(C)O` [Compound 1.003], at BCL2A1 (A1) [3], the IC50 worked out at 103 µM. Further, the ΔTm at 100 µM at BCL2A1 (purified A1) is -1.43 °C. Also, the “% Bound Noxa (from high-dose FP)” value at BCL2A1 (A1) [4] is reported as 51.13%.

Regarding `Cc1ccc(NCCNCC(O)CO)c2c(=O)c3ccccc3sc12` (stereo not shown) [Compound 1.004], the IC50 at BCL2A1 (A1) [3] turned out to be 300 µM. Moreover, the ΔTm at 100 µM on BCL2A1 (purified A1) was -0.6 °C.

As to `Cc1ccc(NCCNCC(C)(C)O)c2c(=O)c3ccccc3sc12` [Compound 1.005], the IC50 at BCL2A1 (A1) [3] worked out at 333 µM. Also, the ΔTm at 100 µM at BCL2A1 (purified A1) is -0.85 °C.

Regarding `O=C(COc1c(Cl)cc(Cl)c2ccccc12)NC1c2ccccc2Oc2ccccc21` [Compound 1.006], on BCL2A1 (A1) [3], the IC50 turned out to be 48.5 µM. Besides, at BCL2A1 (purified A1), the ΔTm at 100 µM worked out at 19.2 °C. For the same compound, the “% Bound Noxa (from high-dose FP)” value on BCL2A1 (A1) [4] is 70.39%.

`Cc1cc(N=Nc2ccc(N=Nc3c(O)c(S(=O)(=O)O)cc4cc(S(=O)(=O)O)ccc34)cc2C)ccc1N=Nc1ccc2cc(S(=O)(=O)O)cc(S(=O)(=O)O)c2c1` [REF 1, reference compound]: the “Average Tm Shift” value at BCL2A1 (purified A1) was 1.92 °C.

As to `Cc1ccc(NC(=O)c2cc3ccccc3c(N=Nc3cc(S(=O)(=O)O)ccc3O)c2O)c(C)c1` [REF 2, reference compound], the “Average Tm Shift” value on BCL2A1 (purified A1) is −30.75 °C. The “% Bound Noxa (from high-dose FP)” value on BCL2A1 (A1) [4] is on record as 1.2%.
